Experiments:
[1] = tested on: SAM in HCT116 human colon carcinoma cell line engineered to delete the MTAP gene (MTAP −/−); assay: Cellular assay of target engagement (SAM) by LC-MS/MS; format: cell-based; conditions: Homo sapiens, HCT-116, 72 h, IC50 score, read-out: Cell 72 h SAM Inhibition (MTAP −/−; Example 276)
Procedure, shortened: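 MTAP-deleted HCT116 cells were dosed 24 h after plating with a 10-point 3-fold compound series in DMSO, then incubated 72 h at 37 °C/5% CO2. Cells were extracted in cold 80% methanol with acetic acid and d3-SAM internal standard. SAM was quantified by LC-MS/MS MRM (m/z 399.2→250.1).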

HCT116 MTAP+/+ = assay: Inhibition of cellular proliferation (Cell Titer Glo), HCT116 MTAP+/+; format: cell-based, human; conditions: Homo sapiens, HCT-116, 96 h, 4 days, IC50 score, read-out: 4 Day Relative Growth Inhibition (MTAP +/+; Example 277)
Procedure, shortened: (§1)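 Isogenic HCT116 lines, MTAP+/+ and MTAP−/−, treated 24 h after plating with 10-point 3-fold compound dilutions including DMSO only, then grown 4 days at 37 °C/5% CO2. Cell Titer Glo ATP luminescence, blank-subtracted and normalised to 0.2% DMSO control, gave percent change in proliferation versus log concentration.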

HCT116 MTAP−/− = assay: Inhibition of cellular proliferation (Cell Titer Glo), HCT116 MTAP−/−; format: cell-based, human; conditions: Homo sapiens, HCT-116, 96 h, 4 days, IC50 score, read-out: 4 Day Relative Growth Inhibition (MTAP −/−; Example 277)
Procedure, shortened: as §1

MAT2A homodimer = molecular target: T1, MAT2A homodimer (Homo sapiens, UniProt P31153); assay: Biochemical assay: inhibition of MAT2A (phosphate release, PiColorLock Gold); conditions: MAT2A IC50 score; read-out: Enzyme Inhibition (Example 275)
T1 construct: inferred from Ni sepharose purification and imidazole elution; made in house; host or cells: Sf9 insect cells, recombinant baculovirus (Bac to Bac, pFASTBAC1)
T1 sequence (P31153 whole entry): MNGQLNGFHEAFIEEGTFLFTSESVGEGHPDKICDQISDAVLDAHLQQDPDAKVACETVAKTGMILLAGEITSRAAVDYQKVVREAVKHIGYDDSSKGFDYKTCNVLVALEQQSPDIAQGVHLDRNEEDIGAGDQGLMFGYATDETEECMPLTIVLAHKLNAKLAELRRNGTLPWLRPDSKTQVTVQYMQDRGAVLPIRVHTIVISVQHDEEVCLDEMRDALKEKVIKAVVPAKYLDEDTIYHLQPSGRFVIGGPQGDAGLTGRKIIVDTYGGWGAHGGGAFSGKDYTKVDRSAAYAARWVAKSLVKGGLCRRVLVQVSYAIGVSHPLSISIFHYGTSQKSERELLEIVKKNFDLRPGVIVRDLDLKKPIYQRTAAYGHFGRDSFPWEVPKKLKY
Procedure, shortened: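 Baculovirus/Sf9-expressed, Ni-purified MAT2A at 4 µg/mL was preincubated with compound for 60 min at 25 °C in 50 mM Tris pH 8.0, 50 mM KCl, 15 mM MgCl2, 0.3 mM EDTA, 0.005% BSA. Substrate mix (500 μM ATP, 400 μM L-methionine) was added and the reaction ran 60 min at 25 °C. Phosphate released stoichiometrically with SAM was measured colorimetrically against a phosphate standard curve.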

Question: What does the source list for `Cn1cc2cc(-n3cc4cnc(NCC(F)(F)F)nc4c(-c4ccc(OC(F)F)cc4)c3=O)ccc2n1` [Example 148, 8-(4-(difluoromethoxy)phenyl)-6-(2-methyl-2H-indazol-5-yl)-2-((2,2,2-trifluoroethyl)amino)pyrido[4,3-d]pyrimidin-7(6H)-one]?
Answer: IC50 [1]: < 0.1 µM; IC50 (HCT116 MTAP+/+): 0.1 to 10 µM; IC50 (HCT116 MTAP−/−): < 0.1 µM; IC50 (MAT2A homodimer): < 0.1 µM

Question: Which IC50 [1] does the source give for `Cn1cc2cc(-n3cc4ccc(OCC(F)(F)F)nc4c(-c4ccc(C(F)F)nc4)c3=O)ccc2n1` [Example 118-A] here?
Answer: < 0.1 µM

Question: And the IC50 (HCT116 MTAP+/+)?
Answer: 0.1 to 10 µM

Question: What about the IC50 (HCT116 MTAP−/−) of the same compound?
Answer: < 0.1 µM

Question: And the IC50 (MAT2A homodimer)?
Answer: < 0.1 µM

Question: For `Cn1cc2cc(-n3cc4cnc(NCC(F)(F)F)nc4c(-c4ccc(Br)cc4)c3=O)ccc2n1` [Example 103-A], which IC50 [1] is on record?
Answer: < 0.1 µM

Question: What about the IC50 (HCT116 MTAP+/+) of the same compound?
Answer: > 10 µM

Question: What about the IC50 (HCT116 MTAP−/−) of the same compound?
Answer: < 0.1 µM

Question: What about the IC50 (MAT2A homodimer) of the same compound?
Answer: < 0.1 µM

Question: What does the source list for `COc1ccc(-c2c(=O)n(-c3ccc4ncccc4c3)cc3cnc(NCC(F)(F)F)nc23)cc1` [Example 181, 8-(4-methoxyphenyl)-6-(quinolin-6-yl)-2-((2,2,2-trifluoroethyl)amino)pyrido[4,3-d]pyrimidin-7(6H)-one]?
Answer: IC50 [1]: < 0.1 µM; IC50 (HCT116 MTAP+/+): > 10 µM; IC50 (HCT116 MTAP−/−): 0.1 to 10 µM; IC50 (MAT2A homodimer): < 0.1 µM

Question: What does the source list for `CCOc1cnc2cn(-c3ccc4nn(C)cc4c3)c(=O)c(-c3ccc(Cl)cc3)c2n1` [Example 147-A]?
Answer: IC50 [1]: < 0.1 µM; IC50 (HCT116 MTAP+/+): > 10 µM; IC50 (HCT116 MTAP−/−): < 0.1 µM; IC50 (MAT2A homodimer): < 0.1 µM

Question: `CCOc1ccc2cn(-c3ccc4nn(CCS(C)(=O)=O)cc4c3)c(=O)c(-c3ccc(OC(F)F)cc3)c2n1` [Example 108-A] was tested. Which IC50 [1] did it give?
Answer: < 0.1 µM

Question: And the IC50 (HCT116 MTAP+/+)?
Answer: 0.1 to 10 µM

Question: And the IC50 (HCT116 MTAP−/−)?
Answer: < 0.1 µM

Question: And the IC50 (MAT2A homodimer)?
Answer: < 0.1 µM

Question: What does the source list for `COc1ccc(-n2cc3cnc(NCC(F)(F)F)nc3c(-c3ccc(Cl)cc3)c2=O)cc1` [Example 193, 8-(4-chlorophenyl)-6-(4-methoxyphenyl)-2-((2,2,2-trifluoroethyl)amino)pyrido[4,3-d]pyrimidin-7(6H)-one]?
Answer: IC50 [1]: 0.1 to 1 µM; IC50 (HCT116 MTAP+/+): > 10 µM; IC50 (HCT116 MTAP−/−): 0.1 to 10 µM; IC50 (MAT2A homodimer): < 0.1 µM

Question: With `Cn1cc2cc(-n3cc4cnc(NCC(F)(F)F)nc4c(-c4ccc(C(F)(F)F)cc4)c3=O)ccc2n1` [Example 161, 6-(2-methyl-2H-indazol-5-yl)-2-((2,2,2-trifluoroethyl)amino)-8-(4-(trifluoromethyl)phenyl)pyrido[4,3-d]pyrimidin-7(6H)-one] as the compound, how does the IC50 [1] read?
Answer: < 0.1 µM

Question: What about the IC50 (HCT116 MTAP+/+) of the same compound?
Answer: > 10 µM

Question: And the IC50 (HCT116 MTAP−/−)?
Answer: < 0.1 µM

Question: And the IC50 (MAT2A homodimer)?
Answer: < 0.1 µM

Question: What does the source list for `O=c1c(-c2ccc(OC(F)F)cc2)c2nc(OCC(F)(F)F)ncc2cn1-c1ccc2ncccc2c1` [Example 264, 8-(4-(difluoromethoxy)phenyl)-6-(quinolin-6-yl)-2-(2,2,2-trifluoroethoxy)pyrido[4,3-d]pyrimidin-7(6H)-one]?
Answer: IC50 [1]: < 0.1 µM; IC50 (HCT116 MTAP+/+): 0.1 to 10 µM; IC50 (HCT116 MTAP−/−): 0.1 to 10 µM; IC50 (MAT2A homodimer): < 0.1 µM

Question: For `Cn1cc2cc(-n3cc4ccc(OCC(F)F)nc4c(-c4ccc(OC(F)(F)F)nc4)c3=O)ccc2n1` [Example 125-A], which IC50 [1] is on record?
Answer: < 0.1 µM

Question: What about the IC50 (HCT116 MTAP+/+) of the same compound?
Answer: 0.1 to 10 µM

Question: And the IC50 (HCT116 MTAP−/−)?
Answer: < 0.1 µM

Question: What about the IC50 (MAT2A homodimer) of the same compound?
Answer: < 0.1 µM

Question: Which IC50 [1] does the source give for `Cn1cnc2ccc(-n3cc4ccc(OCC(F)(F)F)nc4c(-c4ccc(OC(F)F)cc4)c3=O)cc21` [Example 257, 8-(4-(difluoromethoxy)phenyl)-6-(1-methyl-1H-benzo[d]imidazol-6-yl)-2-(2,2,2-trifluoroethoxy)-1,6-naphthyridin-7(6H)-one] here?
Answer: < 0.1 µM

Question: What about the IC50 (HCT116 MTAP+/+) of the same compound?
Answer: 0.1 to 10 µM

Question: What about the IC50 (HCT116 MTAP−/−) of the same compound?
Answer: < 0.1 µM

Question: And the IC50 (MAT2A homodimer)?
Answer: < 0.1 µM

Question: `CCn1cnc2ccc(-n3cc4cnc(NCC(F)(F)F)nc4c(-c4ccc(Cl)cc4)c3=O)cc21` [Example 141, 8-(4-chlorophenyl)-6-(1-ethyl-1H-benzo[d]imidazol-6-yl)-2-((2,2,2-trifluoroethyl)amino)pyrido[4,3-d]pyrimidin-7(6H)-one] was tested. Which IC50 [1] did it give?
Answer: < 0.1 µM

Question: What about the IC50 (HCT116 MTAP+/+) of the same compound?
Answer: > 10 µM

Question: What about the IC50 (HCT116 MTAP−/−) of the same compound?
Answer: < 0.1 µM

Question: What about the IC50 (MAT2A homodimer) of the same compound?
Answer: < 0.1 µM

Question: With `O=c1c(-c2ccc(OC(F)F)cc2)c2nc(NCC(F)(F)F)ncc2cn1-c1ccc2nccn2c1` [Example 157, 8-(4-(difluoromethoxy)phenyl)-6-(imidazo[1,2-a]pyridin-6-yl)-2-((2,2,2-trifluoroethyl)amino)pyrido[4,3-d]pyrimidin-7(6)-one] as the compound, how does the IC50 [1] read?
Answer: < 0.1 µM

Question: What about the IC50 (HCT116 MTAP+/+) of the same compound?
Answer: > 10 µM

Question: And the IC50 (HCT116 MTAP−/−)?
Answer: 0.1 to 10 µM

Question: And the IC50 (MAT2A homodimer)?
Answer: < 0.1 µM

Question: Which results are given for `Cn1cc2cc(-n3cc4ccc(OC5CC5)nc4c(-c4ccc(Cl)cc4)c3=O)ccc2n1` [Example 210, 8-(4-chlorophenyl)-2-cyclopropoxy-6-(2-methyl-2H-indazol-5-yl)-1,6-naphthyridin-7(6H)-one]?
Answer: IC50 [1]: < 0.1 µM; IC50 (HCT116 MTAP+/+): > 10 µM; IC50 (HCT116 MTAP−/−): < 0.1 µM; IC50 (MAT2A homodimer): < 0.1 µM

— patent US11524960B2, “Heterobicyclic inhibitors of MAT2A and methods of use for treating cancer” (AGIOS PHARMACEUTICALS, INC., priority 2018, dated 2022)
